Entries after “also recorded” stand apart in the source; their conditions may differ. Structures can show the parent of a compound that is named as a salt. Peptide text beside a SMILES is read from it. * marks the point of attachment. Cbz = O=C(OCc1ccccc1)*
Assays:
[1] = system: intracellularly accumulated Aβ40; experiment: Degradation of intracellularly accumulated Aβ40 in SH-SY5Y cells (immunoblot, confocal microscopy); type: cell-based; conditions: for degradation of intracellularly accumulated Aβ40 after 30 minutes: reagent added 2 hours before Aβ40 accumulation, immunoblot with 4G8
Source text: (§1) In order to investigate a compound that inhibits intracellular aggregation and accumulation of amyloid β proteins based on activation of intracellular proteasome, a system was constructed for assaying an activity to degrade intracellularly accumulated Aβ. Neuroblastoma cells (SH-SY5Y; ATCC) were used as culture cells and Aβ40 was artificially accumulated within the cells. […] If the activity to degrade Aβ40 was high, the activity to degrade Aβ42 was analogously thought to be high. For introducing amyloid β proteins within cells, hypertonicity influx method was used. Briefly, using Influx™ Pinocytic Cell-loading Reagent (Molecular Probe), SH-SY5Y cells (1×10^6 cells) were exposed to Aβ40 (about 200 μg; ANASPEC) with hypertonicity for 10 minutes/hypotonicity for 2 minutes so that Aβ40 peptides may be incorporated into cells via pinocytosis and spread pervasively in cytoplasm. After accumulation of Aβ40 within cells, degradation of Aβ with lapse of time was observed. […] These reagents were added to culture two hours before Aβ40 accumulation to investigate their activity.
(§2) Zero minute and thirty minutes after Aβ40 treatment, cells were collected and subjected to immunoblot. Immunoblot was performed as commonly known in the art wherein soluble proteins were extracted from cells with 2% SDS, run on Tris/Tricine gel SDS-PAGE, transblotted to PVDF membrane (Semi-dry method) and detected with an anti-Aβ antibody (4G8, Signet Pathology Systems). Quantitative evaluation was done by quantitatively evaluating the immune reaction of amyloid β proteins. Quantitative evaluation was performed by taking in the photos with Photoshop and measuring density of bands with NIH Image. […] Thus, it was considered that intracellularly accumulated Aβ40 were degraded by proteasome and that APO may enhance the degrading process.
Aβ40 was incorporated into cells via pinocytosis as in (1) above.

[2] = system: SH-SY5Y cells; experiment: Cell death induced by hydrogen peroxide in SH-SY5Y cells (cell survival); type: cell-based; conditions: for rate of cell survival: hydrogen peroxide
Experimental: A cell death inhibitory activity of apomorphine hydrochloride to cell death induced by hydrogen peroxide was studied. Hydrogen peroxide treatment was performed by adding an appropriate amount (0 mM, 1 mM, and 3 mM) of hydrogen peroxide to normal culture medium for SH-SY5Y cells supplemented with 10% serum and by investigating cell survival after 24 hours. The cells were fixed with methanol/acetone (50%/50%) for 10 minutes so that the conditions of surviving cells could easily be observed and then subjected to immunostaining with an anti-APP C-terminal antibody (Sigma-Aldrich) using Universal Kit (DAKO). As a result, cell death was induced by hydrogen peroxide (FIG. 3, upper panels). Then, the cells were treated with 10 μM APO together with 0 mM, 1 mM, and 3 mM of hydrogen peroxide.
(§3) Further, in order to study p53 level and a rate of cell survival in cell damage induced by hydrogen peroxide, p53 Western blot analysis and survival rate assay using Cell Titer-Blue Assay Kit (Promega) were performed. Hydrogen peroxide treatment was done by adding an appropriate amount (0 mM, 1 mM, and 3 mM) of hydrogen peroxide to normal culture medium for SH-SY5Y cells supplemented with 10% serum as described above. After 24 hours, the increased p53 level by addition of hydrogen peroxide was inhibited by addition of APO (FIG. 4A). A rate of cell survival was also recovered by addition of APO.

[3] = system: p53; experiment: p53 Western blot analysis in hydrogen peroxide treated SH-SY5Y cells; type: cell-based; conditions: 0, 1, 3 mM hydrogen peroxide, after 24 hours
Experimental: as §3

[4] = system: intracellularly accumulated Aβ42; experiment: Degradation of intracellularly accumulated Aβ42 in SH-SY5Y cells (immunoblot); type: cell-based
Source text: as §1, §2
As described in Example 1(1) and (2), degradation of intracellularly accumulated Aβ was assayed for Aβ42 provided that cells were collected 0 minute and 90 minutes after Aβ42 treatment and subjected to immunoblot.

[5] = system: proteasome; experiment: Proteasome activity in SH-SY5Y cells (20S Proteasome Assay Kit, Suc-LLVY-AMC); type: cell-based
Experimental: As described in Example 2(1) and (2), a change in the protease activity in SH-SY5Y cells by addition of APO was studied. Measurement of the protease activity was conducted by calculating a relative specific activity by measuring fluorescence generated from degradation of a specific substrate (Suc-LLVY-AMC) using 20S Proteasome Assay Kit (BostonBiochem). Comparison between two groups was done by Student t-test.

[6] = system: primary neurons from mouse fetus; experiment: Protective effect in mouse primary neurons (cell survival, beta-tubulin immunostaining); type: cell-based
Experimental: Primary neurons were taken from the brain of fetal mouse of 15 days old, separated by treatment with 0.03% trypsin and cultured in Neurobasal-A+B27 serum-free medium (Gibco). After stabilization by culture for about a week, the reagents were added and a rate of cell survival was measured.
Further, the above mouse primary neurons were immunostained with an antibody to beta-tubulin, a cytoskeletal protein of the axon and a network of the neurite was observed (FIG. 8).

[7] = system: 3×Tg mouse; experiment: Morris water maze test in heterozygous 3×Tg mice; type: in vivo
Experimental: 3×Tg mouse is a model mouse of Alzheimer disease (AD) developed by Oddo and LaFerla et al. at University of California, Irvine. It is a mouse having three potent causes of disease wherein a gene of an amyloid precursor protein (APP) with KM670/671NL mutation, which is a gene causative of Swedish familial AD, and a gene of a tau protein (Tau) with P301L mutation, which is one of genes causative of familial frontotemporal dementia (FTD), are incorporated into a knock-in mouse of presenilin-1 (PS1) gene with M146V mutation causative of familial AD. […] It is also reported that the memory function of 3×Tg mouse is recovered when amyloid β proteins accumulated within neurons are decreased but defects in memory relapse if amyloid β proteins become accumulated (Billings L M et al., Neuron 45: 675-688, 2005). Thus, 3×Tg mouse is a model mouse of disease highly suitable for investigating efficacy of a medicament which targets intracellularly accumulated amyloid β proteins.
For investigating efficacy of apomorphine (APO) hydrochloride administered in vivo, APO was subcutaneously injected to 3×Tg. APO was purchased from Sigma Co. To heterozygous 3×Tg (6 month old; 4 mice in each group) generated from crossbreeding of a normal mouse and a Tg mouse, each 5 mg/kg of saline or APO was subcutaneously injected weekly for 4 weeks. The animals underwent analysis by Morris water maze test to evaluate the capacity of space memory before injection and after completion of four injections.
For quantitatively evaluating the capacity of space memory relating to the memory function of the hippocampus, Morris water maze test was performed. An analytical instrument used was DV-Track Video Tracking System (Muromachi Kikai Co., Ltd.). For Morris water maze, a round-shaped pool with a diameter of 1 m is prepared and a transparent goal stand is set in an arbitrary position of the pool. The animals undergo swimming training repeatedly by starting at an arbitrary position for reaching the goal stand (FIG. 9, left panel). In case that the animals could not reach the goal stand within 60 seconds, the test is discontinued and the animals are put on the goal stand for them to memorize the position. This training is repeated four times a day for three consecutive days and as a consequence the animals come to memorize the position of the goal stand (FIG. 9, right panel). Forty eight hours after completion of learning with time for reaching the goal stand being 15 seconds or less, the animals were let to swim in the pool without the goal stand and three indexes for memory were: time lag (s) in reaching the position where the goal stand was originally placed, a frequency (n) of crossing the position as seeking for the goal stand, and residential time (%) within ¼ block of the position where the goal stand was originally placed (48-hour probe test).

[8] = system: 3×Tg mouse; experiment: Immunostaining of brain slices of 3×Tg mice (4G8, AT8); type: in vivo
Source text: In 3×Tg mouse, it is observed that defects in the recognition function and intracellularly accumulated amyloid β proteins are correlated to each other. For evaluating amyloid β proteins accumulated within neurons, 3×Tg mice used in Example 6 were sacrificed for pathological analysis. Immunostaining was done with an antibody specific to an amyloid β protein and an antibody specific to a phosphorylated tau protein, which is a major component of neurofibrillary tangle in the AD brain. After completion of Morris water maze test after APO injection, the mice were subjected to perfusion fixation with 4% paraformaldehyde. Then, the whole brain was taken out, fixed with 4% paraformaldehyde and was left to stand in 15% sucrose for 48 hours and in 30% sucrose for 48 hours at 4° C. A slice with 20 μm thickness cut from the forehead including the hippocampus was prepared. Immunostaining was performed with 4G8 (Signet Laboratories, 1:1000) for an anti-amyloid β protein antibody and AT8 (Innogenetics, 1:200) for an anti-phosphorylated tau protein antibody using mouse to mouse immunostaining kit (Zymed) for DAB staining.

[9] = system: 3×Tg mouse; experiment: Preventive effect to onset of AD, Morris water maze test in homozygous 3×Tg mice; type: in vivo; conditions: weekly 5 mg/kg from 3 months old up till 6 months old, hydrochloride
Experimental: For investigating whether APO administration may prevent onset of AD, the effect of weekly administration of 5 mg/kg of APO before onset was studied. The recognition function and the pathological change in 3×Tg mice may widely vary from individual to individual and thus still much more data would be necessary for obtaining a definite conclusion.

Compound: CN1CCc2cccc3c2[C@H]1Cc1ccc(O)c(O)c1-3 [APO, apomorphine hydrochloride]
- change in intracellular Aβ40 with lapse of time ([1]; 10 μM APO added two hours before): degraded with lapse of time
- degradation of intracellularly accumulated Aβ40 after 30 minutes [1]: degradation after 30 minutes was enhanced
- degradation of intracellularly accumulated Aβ40 inhibited by MG132, effect of adding APO ([1]; with MG132, 30 minutes, immunoblot): the degradation was recovered
- cell survival (number of surviving cells and morphological features) ([2]; 10 μM APO with 0, 1, 3 mM hydrogen peroxide, 24 hours, immunostaining): evident enhancement of cell survival
- rate of cell survival ([2]; 10 μM APO, Cell Titer-Blue, p<0.0001): extremely improved
- rate of cell survival ([2]; 24 hours, Cell Titer-Blue Assay Kit): recovered
- p53 level increased by hydrogen peroxide [3]: inhibited
- degradation of intracellularly accumulated Aβ42 after 90 minutes [4]: degradation after 90 minutes was enhanced
- proteasome activity (relative specific activity) ([5]; APO alone, hydrochloride): enhanced the proteasome activity; also recorded: increased
- decreased proteasome activity at addition of oxidative stress ([5]; oxidative stress plus APO): recovered
- network of the neurite (beta-tubulin immunostaining) ([6]; mouse primary neurons): protection and maintenance of the network
- apoptosis inhibitory activity for oxidative stress (rate of cell survival) ([6]; primary neurons from fetal mouse of 15 days old): also seen in primary neurons from mouse fetus
- concentration at which the effect of APO was at the peak ([6]; primary neurons from mouse fetus, rate of cell survival, thereafter declined): 10 µM
- capacity of memory for the goal stand position (loci of swimming), 48-hour probe test ([7]; 3×Tg cases (2 mice) in which APO injection was efficacious, hydrochloride): the memory retention of the goal stand position was improved; also recorded: markedly improved
- capacity of learning after 3-day consecutive training (time for reaching the goal stand) ([7]; heterozygous 3×Tg, 6 month old, 5 mg/kg subcutaneous weekly for 4 weeks, n=4, hydrochloride, 5 mg/kg): a tendency of improvement in the capacity of memory and learning; also recorded: slightly higher capacity of learning after treatment
- frequency of crossing the goal stand, 48-hour probe test ([7]; heterozygous 3×Tg, 5 mg/kg s.c. weekly for 4 weeks, after vs before injection, p=0.03): increase in frequency of crossing the goal stand
- residential time (%) within ¼ block of the goal stand, 48-hour probe test ([7]; heterozygous 3×Tg, 5 mg/kg s.c. weekly for 4 weeks, after vs before injection, p=0.04): increase in residential time
- time lag in reaching the goal stand, 48-hour probe test ([7]; heterozygous 3×Tg, 5 mg/kg s.c. weekly for 4 weeks, after vs before injection, p=0.05): shortening of time lag in reaching the goal stand
- fall-off of massive neurons ([8]; 3×Tg mice at the stage of 6-month, after administration): not observed
- intraneuronal accumulation of amyloid β proteins (4G8 immunostaining) ([8]; cerebral cortex and hippocampus CA1 region, 3×Tg mice of Example 6, vs saline, hydrochloride): evidently inhibited
- intraneuronal accumulation of phosphorylated tau proteins (AT8 immunostaining) ([8]; cerebral cortex and hippocampus, 3×Tg mice of Example 6, vs saline, hydrochloride): the accumulation was inhibited
- capacity of memory acquisition in swimming training (time lag in reaching the goal stand) [9]: comparable to Non-Tg mice; also recorded: evidently superior to that of 3×Tg mice with no treatment; also recorded: comparable to non-transgenic mice

Compound: CC(C)C[C@@H](C=O)NC(=O)[C@H](CC(C)C)NC(=O)[C@H](CC(C)C)NC(=O)OCc1ccccc1 [MG132] (Cbz-Leu-Leu-Leu-aldehyde)
- degradation of intracellularly accumulated Aβ40 after 30 minutes [1]: degradation was inhibited
- degradation of intracellularly accumulated Aβ42 after 90 minutes [4]: degradation was inhibited

Compound: Aβ42: amyloid β protein of 42 residues; printed in b62 as the added agent, probably a misprint for APO
- degradation of intracellularly accumulated Aβ42 inhibited by MG132, recovery ([4]; with MG132, 90 minutes): the degradation was recovered
